In ChEMBL document CHEMBL1201862, “PubChem BioAssay data set” (2004):
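48-hour exposure; five concentrations; linearly interpolated endpoints. GI50 is the concentration that inhibits growth by half.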 Active and inactive are the calls of the source. Rule as the data show it: active = GI50 up to about 1.1 µM and inactive = higher.

Assays:
Experiment in all cases: DTP human tumour cell line panel, 48 h
ACHN = system: ACHN
CAKI-1 = system: CAKI-1
DU-145 = system: DU-145
EKVX = system: EKVX
HL-60 = system: HL-60
IGROV-1 = system: IGROV-1
KM12 = system: KM12
MCF7 = system: MCF7
MDA-MB-435 = system: MDA-MB-435
NCI-H460 = system: NCI-H460
OVCAR-4 = system: OVCAR-4
OVCAR-5 = system: OVCAR-5
PC-3 = system: PC-3
SF-268 = system: SF-268
SK-MEL-2 = system: SK-MEL-2
SNB-75 = system: SNB-75
T47D = system: T47D
HOP-62 = system: HOP-62

| SMILES | GI50 (ACHN) | GI50 (CAKI-1) | GI50 (DU-145) | GI50 (EKVX) | GI50 (HL-60) | GI50 (IGROV-1) | GI50 (KM12) | GI50 (MCF7) | GI50 (MDA-MB-435) | GI50 (NCI-H460) | GI50 (OVCAR-4) | GI50 (OVCAR-5) | GI50 (PC-3) | GI50 (SF-268) | GI50 (SK-MEL-2) | GI50 (SNB-75) | GI50 (T47D) | GI50 (HOP-62) |
| --- | --- | --- | --- | --- | --- | --- | --- | --- | --- | --- | --- | --- | --- | --- | --- | --- | --- | --- |
| C=C1C(=O)OC2/C=C(\C)CC/C=C(\C)CC(OC(=O)/C(=C/CO)CO)[C@@H]12 (stereo partly specified) | 6.21 µM (inactive) | 4.12 µM (inactive) | 20 µM (inactive) | 15.2 µM (inactive) | 2.72 µM (inactive) | 10.5 µM (inactive) | 18.1 µM (inactive) | 4.46 µM (inactive) | 5.75 µM (inactive) | 22.1 µM (inactive) | 13.1 µM (inactive) | 17.3 µM (inactive) | 16.9 µM (inactive) | 20.7 µM (inactive) | 16.9 µM (inactive) | 12.3 µM (inactive) | 3.97 µM (inactive) |  |
| OC(c1ccc(-c2ccccc2)cc1)(c1ccc(-c2ccccc2)cc1)c1ccc(-c2ccccc2)cc1 | > 100 µM (inactive) | > 100 µM (inactive) | > 100 µM (inactive) | > 100 µM (inactive) | > 10 µM (inactive) | > 100 µM (inactive) | > 100 µM (inactive) | > 100 µM (inactive) | > 100 µM (inactive) | > 100 µM (inactive) | > 100 µM (inactive) | > 100 µM (inactive) | > 100 µM (inactive) | > 100 µM (inactive) |  |  | > 100 µM (inactive) | > 100 µM (inactive) |
| CCCn1cnc2c(/N=N/O)ncnc21 | > 100 µM (inactive) | > 100 µM (inactive) | > 100 µM (inactive) | > 100 µM (inactive) | > 100 µM (inactive) | > 100 µM (inactive) | > 100 µM (inactive) | > 100 µM (inactive) | > 100 µM (inactive) | > 100 µM (inactive) | > 100 µM (inactive) | > 100 µM (inactive) | > 100 µM (inactive) | > 100 µM (inactive) |  | > 100 µM (inactive) | > 100 µM (inactive) | > 100 µM (inactive) |
| Fc1cc2nc3n(c2cc1F)C(c1c(F)cccc1F)SC3 (stereo unspecified) | 61 µM (inactive) | 34.3 µM (inactive) | 87.5 µM (inactive) |  | 16.8 µM (inactive) | 47.9 µM (inactive) | 41.1 µM (inactive) | 31.4 µM (inactive) | 35.3 µM (inactive) | 36.8 µM (inactive) | 42.1 µM (inactive) | 53.3 µM (inactive) | 37.3 µM (inactive) | 74 µM (inactive) | 38.2 µM (inactive) | 31.4 µM (inactive) | 37 µM (inactive) | 67.9 µM (inactive) |
| Nc1nc(N)nc(-c2cnc3ccccc3c2)n1 | > 100 µM (inactive) | > 100 µM (inactive) | > 100 µM (inactive) | 38.4 µM (inactive) |  | 58.6 µM (inactive) | > 100 µM (inactive) | > 100 µM (inactive) | > 100 µM (inactive) | > 100 µM (inactive) |  | 39.5 µM (inactive) | > 100 µM (inactive) | > 100 µM (inactive) | > 100 µM (inactive) | 85.7 µM (inactive) | > 100 µM (inactive) | > 100 µM (inactive) |
| COc1ccc(C2C3=C(Nc4ncnn42)c2ccccc2OC3c2ccccc2)cc1 (stereo unspecified) | 18.5 µM (inactive) | 26.5 µM (inactive) | > 100 µM (inactive) |  | 2.27 µM (inactive) | 27.1 µM (inactive) | 14.6 µM (inactive) | 13.5 µM (inactive) | 4.3 µM (inactive) | 27.2 µM (inactive) |  | 89.1 µM (inactive) | 27.4 µM (inactive) | 42.6 µM (inactive) | 6 µM (inactive) |  | 13.7 µM (inactive) | > 100 µM (inactive) |
| CC1(C)[C@@H]2C[C@H]1C(Cc1ccc(C[C@H]3c4cc(-c5ccccn5)ncc4[C@H]4C[C@@H]3C4(C)C)cc1)c1cc(-c3ccccn3)ncc12 (stereo partly specified) | 0.971 µM (active) | 2.45 µM (inactive) | 2.31 µM (inactive) | 1.32 µM (inactive) | 0.518 µM (active) | 1.25 µM (inactive) | 2.18 µM (inactive) | 1.89 µM (inactive) | 1.13 µM (inactive) | 0.916 µM (active) |  | 1.46 µM (inactive) | 0.587 µM (active) | 0.865 µM (active) | 7.38 µM (inactive) | 59.8 µM (inactive) | 2.52 µM (inactive) | 0.538 µM (active) |
| CC(C)C(/C=C/c1ccc(Cl)cc1)=N\NC(=S)NN | 10.6 µM (inactive) | 22.4 µM (inactive) | 27.5 µM (inactive) |  | 4.99 µM (inactive) | 20.2 µM (inactive) | 23.8 µM (inactive) | 15.6 µM (inactive) | 10.7 µM (inactive) | 5.26 µM (inactive) |  | 30.9 µM (inactive) | 36.5 µM (inactive) | 7.57 µM (inactive) | 7.03 µM (inactive) | 22.9 µM (inactive) | 6.59 µM (inactive) | 31.6 µM (inactive) |
